Source: US4385055A, “2-Acetyl-and 2-propionylpyridine thiosemicarbazones as antimalarials” (The United States of America as represented by the …, priority 1981, dated 1983)
≈ marks a conversion by molar mass, not a printed value. Read-outs that look alike come from different tables or passages of the source. One block for each molecule: values may come before it.

Key:
Assay type in all cases: cell-based
Neisseria meningitidis = experiment: Macro broth dilution MIC, Neisseria meningitidis isolates (Test 2); settings: for MIC: Neisseria meningitidis, 24 h, read-out: Minimum Inhibitory Concentration
Method: Compounds were tested against five isolates of Neisseria meningitidis. The bacterial isolates were provided by the Department of Bacterial Diseases of the Walter Reed Army Institute of Research. The test procedure used was the macro broth dilution method in duplicate outlined by J. C. Sherris on pages 414-415 (loc. cit.). The test compounds and controls were prepared as in Test 1 above. Ampicillin and penicillin standards were initially diluted as described by J. C. Sherris on pages 411-412 (loc. cit.) followed by dilution with Mueller-Hinton broth. The tubes were incubated at 37° C. under 5-10% carbon dioxide.

Neisseria gonorrhoeae = experiment: Agar dilution MIC, Neisseria gonorrhoeae isolates (Test 3); settings: 24 h
Method: Compounds were tested against six Neisseria gonorrhoeae isolates. The bacteria used were provided by the Department of Bacterial Diseases of the Walter Reed Army Institute of Research. The test procedure used was the agar dilution method in duplicate as outlined by J. C. Sherris on pages 411-412 (loc. cit.). GC Medium (Difco) with a 2% defined supplement added as described by D. S. Kellogg et al. [J. Bact. 85:1274-1279 (1963)] was used as the media. The compounds were dissolved in DMSO (1.0 mg/mL), diluted with GC broth (GC Medium without agar) to the appropriate concentration, and added to the GC Medium at 55°-56° C. The latter was then poured and allowed to solidify. A penicillin standard was also prepared with initial dilutions as described by J. C. Sherris followed by dilutions with GC broth and addition to the GC Medium at 55°-56° C. as above. The inoculum was 1:200 GC broth dilution of a suspension of colony isolates after the suspension was adjusted visually to the turbidity standard described by J. M. Matsen and A. L. Barr on page 422 in "Manual of Clinical Microbiology," 2nd ed., E. Lennette, E. H. Spaulding, and J. P. Truant, Ed. (American Society for Microbiology, Washington, D.C., 1974). The plates were inoculated with a replicator and incubated at 37° C. under 5-10% carbon dioxide.

Mycobacterium smegmatis = experiment: MIC against Mycobacterium smegmatis strains (Test 4); settings: Mycolicibacterium smegmatis, read-out: Minimum Inhibitory Concentration
Method: Compounds were tested against four strains of Mycobacterium smegmatis. The test procedure used was as mentioned by N. E. Morrison [Int. J. of Leprosy 39:34-43 (1971)]. The strain numbers refer to Mycobacterium smegmatis ATCC 607, a DDS-resistant daughter strain, a Rifampin-resistant daughter strain, and a Clofazimine-resistant daughter strain, respectively.

Staphylococcus aureus = experiment: Macro broth dilution MIC, Staphylococcus aureus isolates (Test 1); settings: 24 h, read after 24 hours, read-out: Minimum Inhibitory Concentration
Method: (§1) Compounds were tested against five isolates of Staphylococcus aureus and five isolates of Group D Enterococcus. The bacteria used were isolated from patients at the Walter Reed Army Medical Center, Washington, D.C. The test procedure used was the macro broth dilution method in duplicate as outlined by J. C. Sherris on pages 414-415 in "Manual of Clinical Microbiology," 2nd ed., E. Lennette, E. H. Spaulding, and J. P. Truant, Ed. (American Society for Microbiology, Washington, D.C., 1974). Each compound was dissolved in DMSO (12.8 mg/mL) and then diluted with Mueller-Hinton broth to obtain the desired dilutions. Tubes containing the highest quantities of DMSO with no compound present were run as controls.

Group D Enterococcus = experiment: Macro broth dilution MIC, Group D Enterococcus isolates (Test 1); settings: 24 h, read after 24 hours, read-out: Minimum Inhibitory Concentration
Method: as §1

[1] = Neisseria meningitidis isolate 7990, read after 24 hours
[2] = Neisseria meningitidis isolate 8006, read after 24 hours
[3] = Neisseria meningitidis isolate 8011, read after 24 hours
[4] = ATCC607, Mycobacterium smegmatis strain I (ATCC 607)
[5] = Mycobacterium smegmatis strain III (Rifampin-resistant daughter strain)
[6] = Neisseria gonorrhoeae isolate 135, read after 24 hours, read-out: Minimum Inhibitory Concentration
[7] = Neisseria gonorrhoeae isolate 161, read after 24 hours, read-out: Minimum Inhibitory Concentration
[8] = Neisseria gonorrhoeae isolate 278, read after 24 hours, read-out: Minimum Inhibitory Concentration
[9] = Neisseria gonorrhoeae isolate 455, read after 24 hours, read-out: Minimum Inhibitory Concentration
[10] = Neisseria gonorrhoeae isolate 456, read after 24 hours, read-out: Minimum Inhibitory Concentration
[11] = Neisseria gonorrhoeae isolate 602, read after 24 hours, read-out: Minimum Inhibitory Concentration
[12] = Neisseria meningitidis isolate 7957, read after 24 hours
[13] = Neisseria meningitidis isolate 8005, read after 24 hours
[14] = Mycobacterium smegmatis strain II (DDS-resistant daughter strain)
[15] = Mycobacterium smegmatis strain IV (Clofazimine-resistant daughter strain)

Compound: CC1(C)S[C@@H]2[C@H](NC(=O)Cc3ccccc3)C(=O)N2[C@H]1C(=O)O [Penicillin, reference compound]
- Minimum Inhibitory Concentration (Neisseria meningitidis; [1]): 0.031 µg/mL
- Minimum Inhibitory Concentration (Neisseria meningitidis; [2]): 0.031 µg/mL
- Minimum Inhibitory Concentration (Neisseria meningitidis; [3]): 0.031 µg/mL
- MIC (Neisseria meningitidis): 0.031 µg/mL (≈ 0.0927 µM)
- MIC (Neisseria gonorrhoeae; read-out: Minimum Inhibitory Concentration, Neisseria gonorrhoeae isolate 135, read after 24 hours): 0.25 µg/mL (≈ 0.748 µM)
- MIC (Neisseria gonorrhoeae; read-out: Minimum Inhibitory Concentration, Neisseria gonorrhoeae isolate 161, read after 24 hours): 0.125 µg/mL (≈ 0.374 µM)
- MIC (Neisseria gonorrhoeae; read-out: Minimum Inhibitory Concentration, Neisseria gonorrhoeae isolate 278, read after 24 hours): < 0.062 µg/mL
- MIC (Neisseria gonorrhoeae; read-out: Minimum Inhibitory Concentration, Neisseria gonorrhoeae isolate 455, read after 24 hours): 0.125 µg/mL (≈ 0.374 µM)
- MIC (Neisseria gonorrhoeae; read-out: Minimum Inhibitory Concentration, Neisseria gonorrhoeae isolate 456, read after 24 hours): > 16 µg/mL
- MIC (Neisseria gonorrhoeae; read-out: Minimum Inhibitory Concentration, Neisseria gonorrhoeae isolate 602, read after 24 hours): > 16 µg/mL

Compound: CO[C@H]1/C=C/O[C@@]2(C)Oc3c(C)c(O)c4c(O)c(c(/C=N/N5CCN(C)CC5)c(O)c4c3C2=O)NC(=O)/C(C)=C\C=C\[C@H](C)[C@H](O)[C@@H](C)[C@@H](O)[C@@H](C)[C@H](OC(C)=O)[C@@H]1C [Rifampin, reference compound]
- MIC (Mycobacterium smegmatis; [4]): 1 µg/mL (≈ 1.22 µM)
- MIC (Mycobacterium smegmatis; [5]): 250 µg/mL (≈ 304 µM)

- MIC (Neisseria gonorrhoeae; [6]): 0.008 µg/mL (≈ 0.0305 µM)
- MIC (Neisseria gonorrhoeae; [7]): 0.004 µg/mL (≈ 0.0152 µM)
- MIC (Neisseria gonorrhoeae; [8]): 0.008 µg/mL (≈ 0.0305 µM)
- MIC (Neisseria gonorrhoeae; [9]): 0.008 µg/mL (≈ 0.0305 µM)
- MIC (Neisseria gonorrhoeae; [10]): 0.008 µg/mL (≈ 0.0305 µM)
- MIC (Neisseria gonorrhoeae; [11]): 0.008 µg/mL (≈ 0.0305 µM)
Compound: CC(=NNC(=S)N1CCCCC1)c1ccccn1 [GG, Piperidine-1-thiocarboxylic acid 2-[1-(2-pyridyl)ethylidene]hydrazide]

- MIC (Neisseria meningitidis; [12]): 0.062 µg/mL (≈ 0.183 µM)
- MIC (Neisseria meningitidis; [1]): 0.062 µg/mL (≈ 0.183 µM)
- MIC (Neisseria meningitidis; [13]): 1 µg/mL (≈ 2.95 µM)
- MIC (Neisseria meningitidis; [2]): 0.062 µg/mL (≈ 0.183 µM)
- MIC (Neisseria meningitidis; [3]): 0.125 µg/mL (≈ 0.368 µM)
- MIC (Neisseria gonorrhoeae; [6]): 0.031 µg/mL (≈ 0.0913 µM)
- MIC (Neisseria gonorrhoeae; [7]): < 0.008 µg/mL
- MIC (Neisseria gonorrhoeae; [8]): 0.031 µg/mL (≈ 0.0913 µM)
- MIC (Neisseria gonorrhoeae; [9]): 0.031 µg/mL (≈ 0.0913 µM)
- MIC (Neisseria gonorrhoeae; [10]): 0.016 µg/mL (≈ 0.0471 µM)
- MIC (Neisseria gonorrhoeae; [11]): 0.031 µg/mL (≈ 0.0913 µM)
Compound: CC(=NNC(=S)N1CCN(c2ccccc2)CC1)c1ccccn1 [K, 1,4-Diaza-4-phenylcyclohexane-1-thiocarboxylic acid 2-[1-(2-pyridyl)ethylidene]hydrazide]

Compound: CC(=NNC(=S)N1CCN(c2ccccn2)CC1)c1ccccn1.Cl.Cl [W, 1,4-Diaza-4-(2-pyridyl)cyclohexane-1-thiocarboxylic acid 2-[1-(2-pyridyl)-ethylidene]hydrazide dihydrochloride]
- MIC (Mycobacterium smegmatis; [4]): 6 µg/mL
- MIC (Mycobacterium smegmatis; [14]): 10 µg/mL
- MIC (Mycobacterium smegmatis; [5]): 5 µg/mL
- MIC (Mycobacterium smegmatis; [15]): 6 µg/mL

- MIC (Neisseria gonorrhoeae; [6]): 0.016 µg/mL (≈ 0.0677 µM)
- MIC (Neisseria gonorrhoeae; [7]): 0.004 µg/mL (≈ 0.0169 µM)
- MIC (Neisseria gonorrhoeae; [8]): 0.016 µg/mL (≈ 0.0677 µM)
- MIC (Neisseria gonorrhoeae; [9]): 0.008 µg/mL (≈ 0.0338 µM)
- MIC (Neisseria gonorrhoeae; [10]): 0.008 µg/mL (≈ 0.0338 µM)
- MIC (Neisseria gonorrhoeae; [11]): 0.008 µg/mL (≈ 0.0338 µM)
Compound: CCC(=NNC(=S)N(C)C)c1ccccn1 [JJ, 2-Propionylpyridine 4,4-dimethyl-3-thiosemicarbazone]

- MIC (Staphylococcus aureus; Staphylococcus aureus isolate I): 0.5 µg/mL (≈ 1.63 µM)
- MIC (Staphylococcus aureus; Staphylococcus aureus isolate III): 1 µg/mL (≈ 3.26 µM)
- MIC (Staphylococcus aureus; Staphylococcus aureus isolate IV): 0.5 µg/mL (≈ 1.63 µM)
- MIC (Staphylococcus aureus; Staphylococcus aureus isolate V): 0.5 µg/mL (≈ 1.63 µM)
- MIC (Neisseria meningitidis; [12]): 0.062 µg/mL (≈ 0.202 µM)
- MIC (Neisseria meningitidis; [1]): 0.125 µg/mL (≈ 0.408 µM)
- MIC (Neisseria meningitidis; [13]): 0.5 µg/mL (≈ 1.63 µM)
- MIC (Neisseria meningitidis; [2]): 0.062 µg/mL (≈ 0.202 µM)
- MIC (Neisseria meningitidis; [3]): 0.5 µg/mL (≈ 1.63 µM)
- MIC (Group D Enterococcus; Group D Enterococcus isolate I): 2 µg/mL (≈ 6.53 µM)
- MIC (Group D Enterococcus; Group D Enterococcus isolate II): 2 µg/mL (≈ 6.53 µM)
- MIC (Group D Enterococcus; Group D Enterococcus isolate III): 2 µg/mL (≈ 6.53 µM)
- MIC (Group D Enterococcus; Group D Enterococcus isolate IV): 4 µg/mL (≈ 13.1 µM)
- MIC (Group D Enterococcus; Group D Enterococcus isolate V): 2 µg/mL (≈ 6.53 µM)
Compound: CC(=NNC(=S)N(CC(C)C)CC(C)C)c1ccccn1 [O, 2-Acetylpyridine 4,4-diisobutyl-3-thiosemicarbazone]

Compound: CC(=NNC(=S)N1CCC1)c1ccccn1 [FF, Azetidine-1-thiocarboxylic acid 2-[1-(2-pyridyl)ethylidene]hydrazide]
- MIC (Mycobacterium smegmatis; [4]): 2 µg/mL (≈ 8.54 µM)
- MIC (Mycobacterium smegmatis; [14]): 2 µg/mL (≈ 8.54 µM)
- MIC (Mycobacterium smegmatis; [5]): < 1 µg/mL
- MIC (Mycobacterium smegmatis; [15]): < 1 µg/mL
